From ChEMBL document CHEMBL2331431, “Anti-inflammatory lanostanoids and lactone derivatives from Antrodia camphorata” (J Nat Prod, 2013)
In brackets after ≈: the same amount, converted by molar mass.

Legend:
[1] = target: T1, Nitric oxide synthase, inducible (Mus musculus, UniProt P29477); experiment: Inhibition of iNOS-mediated nitric oxide production in LPS-stimulated mouse RAW264.7 cells after 24 hrs by Griess reaction analysis; type: cell-based
T1 sequence (P29477 whole entry): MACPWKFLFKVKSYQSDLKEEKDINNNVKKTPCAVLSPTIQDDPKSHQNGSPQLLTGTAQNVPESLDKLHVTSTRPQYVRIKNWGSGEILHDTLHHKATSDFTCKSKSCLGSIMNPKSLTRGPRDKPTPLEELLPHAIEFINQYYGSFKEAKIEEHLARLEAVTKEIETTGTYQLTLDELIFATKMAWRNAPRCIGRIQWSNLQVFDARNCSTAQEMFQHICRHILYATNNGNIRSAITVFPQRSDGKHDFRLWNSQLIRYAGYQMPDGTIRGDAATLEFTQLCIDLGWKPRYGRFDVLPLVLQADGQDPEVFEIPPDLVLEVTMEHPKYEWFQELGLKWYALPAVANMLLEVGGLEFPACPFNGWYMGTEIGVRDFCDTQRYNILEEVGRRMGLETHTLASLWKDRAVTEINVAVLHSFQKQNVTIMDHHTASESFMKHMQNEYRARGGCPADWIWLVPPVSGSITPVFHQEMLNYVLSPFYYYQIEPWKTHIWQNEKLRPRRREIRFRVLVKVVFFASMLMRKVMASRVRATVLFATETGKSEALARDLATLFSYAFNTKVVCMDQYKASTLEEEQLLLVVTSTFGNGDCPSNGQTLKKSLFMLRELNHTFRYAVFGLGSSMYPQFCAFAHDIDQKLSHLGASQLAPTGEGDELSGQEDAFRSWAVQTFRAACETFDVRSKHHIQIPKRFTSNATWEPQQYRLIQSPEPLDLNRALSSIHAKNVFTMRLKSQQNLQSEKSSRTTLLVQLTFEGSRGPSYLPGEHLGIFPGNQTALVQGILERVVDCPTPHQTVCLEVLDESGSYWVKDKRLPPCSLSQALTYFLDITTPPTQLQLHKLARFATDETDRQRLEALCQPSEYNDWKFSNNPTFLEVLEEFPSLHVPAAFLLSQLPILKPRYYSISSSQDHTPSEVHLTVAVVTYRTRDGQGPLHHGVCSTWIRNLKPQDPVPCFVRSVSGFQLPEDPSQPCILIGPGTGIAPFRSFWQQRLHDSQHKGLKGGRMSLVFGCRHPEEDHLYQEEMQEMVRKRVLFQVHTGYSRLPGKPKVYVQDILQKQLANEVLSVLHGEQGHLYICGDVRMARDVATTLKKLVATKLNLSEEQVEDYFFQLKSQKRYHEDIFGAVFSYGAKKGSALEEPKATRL

RAW264.7 = experiment: Cytotoxicity against LPS-stimulated mouse RAW264.7 cells at 20 ug/ml; type: cell-based
HL-60 = experiment: Cytotoxicity against human HL60 cells assessed as inhibition of cell proliferation after 24 hrs; type: functional, cell-based; conditions: HL-60, 24 h
K562 = experiment: Cytotoxicity against human K562 cells assessed as inhibition of cell proliferation after 24 hrs; type: functional, cell-based; conditions: K562, 24 h

Row | Compound | IC50 [1] [µM] | Activity (RAW264.7) | IC50 (HL-60) [µg/mL] | IC50 (K562) [µg/mL]
1 | C/C(=C\CC[C@@H](C)[C@H]1CC[C@@]2(C)C3=C([C@H](O)C[C@]12C)[C@@]1(C)CCC(=O)C(C)(C)[C@@H]1CC3=O)C(=O)O | 5 | Non-toxic | – | –
2 | COc1cc(CCC(=O)O)oc(=O)c1 | > 20 | Non-toxic | – | –
3 | C/C(=C\CC[C@@H](C)[C@H]1CC[C@@]2(C)C3=C(C(=O)C[C@]12C)[C@@]1(C)CCC(=O)C(C)(C)[C@@H]1CC3=O)C(=O)O | 5 | Non-toxic | – | –
4 | COC(=O)C(C)CC(=O)C[C@@H](C)[C@H]1CC(=O)[C@@]2(C)C3=C(C(=O)C(=O)[C@]12C)[C@@]1(C)CCC(=O)C(C)(C)[C@@H]1CC3=O (some centres not stated) | 8.9 | Non-toxic | – | –
5 | CCOC(=O)C(C)CC(=O)C[C@@H](C)[C@H]1CC(=O)[C@@]2(C)C3=C(C(=O)C(=O)[C@]12C)[C@@]1(C)CCC(=O)C(C)(C)[C@@H]1CC3=O (some centres not stated) | 6.2 | Non-toxic | – | –
6 | CC(=O)O[C@H]1C[C@H]([C@H](C)CC(=O)CC(C)C(=O)O)[C@@]2(C)CC(=O)C3=C(CC[C@H]4C(C)(C)C(=O)CC[C@]34C)[C@]12C (some centres not stated) | 4.9 | Non-toxic | – | –
7 | CC(CC(=O)C[C@@H](C)C1=CC(=O)[C@@]2(C)C3=C(C(=O)C[C@]12C)[C@@]1(C)CCC(=O)C(C)(C)[C@@H]1C[C@@H]3O)C(=O)O (some centres not stated) | > 20 | Non-toxic | – | –
8 | COCC1(O)OC(=O)C=C1C (racemic) | > 20 | Non-toxic | – | –
9 | CCOC(=O)CC[C@@H](C)[C@H]1CC(=O)[C@@]2(C)C3=C(C(=O)C[C@]12C)[C@@]1(C)CCC(=O)C(C)(C)[C@@H]1C[C@@H]3O [ETHYL LUCIDENATE A] | 10.8 | Non-toxic | 30 (≈ 61.6 µM) | 30 (≈ 61.6 µM)
10 | CCOC(=O)CC[C@@H](C)[C@H]1CC(=O)[C@@]2(C)C3=C(C(=O)C[C@]12C)[C@@]1(C)CCC(=O)C(C)(C)[C@@H]1CC3=O [ETHYL LUCIDENATE F] | > 20 | Non-toxic | – | –
